The record followed here is ChEMBL document CHEMBL6134903, “Challenging triple negative breast cancer through HDAC6 selective inhibition: Novel cap-group identification, structure-activity relationships, computational and biological studies” (Eur J Med Chem, 2025).

Series [1] is described as follows: Cytotoxicity against human HeLa cells assessed as reduction in cell viability incubated for 72 hrs by CellTiter Glo assay. Type of series: toxicity, cell-based. On the technique in general: Cellular ATP, detected with luciferase, serves as a proxy for viable cell number.
A further series is described as follows: physchem. To be noted: MeOH/H2O, pH 7.

Structures are written as SMILES.

Description for physchem: Solubility of the compound in MeOH/H20 at pH 7 incubated for 24 hrs by LC-MS/MS analysis

One may read the IC50 as the concentration that inhibits the measured activity by half. The CC50 is the concentration that lowers cell viability or growth by half. With `O=C(/C=C/c1ccc(CN(CCO)CCc2c[nH]c3ccccc23)cc1)NO` [DACINOSTAT], in series [1], the IC50 at 72 h was 30.8 nM and the 50% cytotoxic concentration (CC50) at 72 h is 30 nM.

`Cc1[nH]c2ccccc2c1CCNCc1ccc(/C=C/C(=O)NO)cc1` [PANOBINOSTAT]: in series [1], the IC50 at 72 h was found to be 10.9 nM and the CC50 at 72 h came out at 11 nM.

The solubility is how much of the substance goes into solution per volume. Turning to `CN1CCc2c(c3ccccc3n2Cc2ccc(C(=O)NO)cc2)C1` [TUBASTATIN A], the solubility at 24 h in “physchem” was less than 1000 µg/mL.
